Experimental data from patent US8507545B2, “Cytotoxic T cell activator comprising EP4 agonist” (National University Corporation, Hamamatsu University …, priority 2007, dated 2013).

How the values were obtained:
TRP-2-specific CTLs = assay: Activation of cytotoxic T cells in isolated Langerhans cells co-cultured with lymphocytes; format: cell-based, C57BL/6(B6) mouse
Description: A given area of an auricle epidermal sheet was removed from the corneal layer of one auricle of each C57BL/6(B6) mouse, and trypsinized to yield an epidermal cell suspension. The epidermal cell suspension obtained was subjected to panning using an antibody specific for I-A^b antigen to isolate epidermal Langerhans cells. After each test substance (TRP-2 (concentration; 10 μg/mL) and Compound A-(1) (1 μM)) was added to the Langerhans cells isolated (cell density; 10^5 cells per mL), the cells were cultured with a medium (cRPMI1640 medium; Sigma-Aldrich Japan). Half a day later, the cells were co-cultured with splenocytic lymphocytes isolated from […] for 7 days. Subsequently, by a flowcytometric analysis (FACScaliber; Becton, Dickinson and Company.) using a tetramer (Medical & Biological Laboratories Co., Ltd.), the frequency of TRP-2-specific CTLs was determined relative to the total number of mononucleocytes in the medium as 100. Three experimental groups were established: (1) a group with no treatment, (2) a group with the addition of TRP-2, and (3) a group with the addition of both TRP-2 and Compound A-(1).

B16 melanoma cells = assay: Melanoma growth suppressing action; format: in vivo, B6 mouse; conditions: for tumor diameter compared with the experimental group (1): FIG. 1
Description: The corneal layer was removed from the right auricle of each B6 mouse by TS in the same manner as Example 1, and test substances (TRP-2 and Compound A-(1)) were applied there; 2 weeks later, the left auricle was treated in the same manner. The test substances applied to both ears were used in the same combination; TRP-2 was applied at 10 μg for one side of each auricle, and Compound A-(1) was applied at 20 μl, of 100 μM solution for one side of each auricle. Four days after the above-described treatment, each mouse received 2×10^5 B16 melanoma cells (RIKEN's Cell Bank) by subcutaneous transplantation, and examined for tumor growth. Experimental groups were established as in Example 1(1) (5 animals in each group).
Tumor diameter (mm), as an index of tumor growth, was measured in each group at various days after inoculation of B16 melanoma cells; the results are shown in FIG. 1.

[1] = TS followed by application of Compound A-(1) alone, experimental group (3)
[2] = TS followed by application of TRP-2 and Compound A-(1), experimental group (4)

Structure (SMILES): COCc1cccc(C[C@H](O)/C=C/[C@H]2[C@H](O)CC(=O)[C@@H]2SCCCSCC(=O)O)c1 [Compound A-(1), 11α,15α,-dihydroxy-9-oxo-16-(3-methoxymethylphenyl)-17,18,19,20-tetranol-3,7-dithiaprost-13E-enoic acid]
- Ratio of TRP-2-specific CTLs (TRP-2-specific CTLs; addition of both TRP-2 (10 μg/mL) and Compound A-(1) (1 μM), 7 days co-culture, relative to total mononucleocytes in the medium as 100): 6.6
- action of inducing TRP-2-specific CTLs compared with TRP-2 (TRP-2-specific CTLs; isolated Langerhans cells): equivalent
- tumor growth rates (B16 melanoma cells; [1]): decreased
- tumor diameter compared with the experimental group (1) (B16 melanoma cells; [1]): smaller
- tumor growth rates (B16 melanoma cells; [2]): decreased
- take of B16 melanoma cells (B16 melanoma cells; TS followed by application of TRP-2 and Compound A-(1), experimental group (4), 5 animals): did not take in any animals
- tumor diameter compared with the experimental group (1) (B16 melanoma cells; [2]): smaller
